Laboratory results as given in EP4273147A1, “SUBSTITUTED SPIROLACTAMS, SALTS THEREOF AND THEIR USE AS HERBICIDALLY ACTIVE SUBSTANCES” (Bayer Aktiengesellschaft, priority 2022, dated 2023).

Columns and labels:
[1] = system: ECHCG; assay: Herbicidal pre-emergence action (Table A2); assay type: in vivo, Echinochloa crus-galli; conditions: application rate 320 g/ha; visual grading after ca. 3 weeks
Method in brief: (§1)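 Sandy loam filled the pots; weed seeds went in as paired sowings of one grass-type and one broadleaf species, then were covered with soil.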

[2] = system: ECHCG; assay: Herbicidal post-emergence action (Table B3); assay type: in vivo, Echinochloa crus-galli; conditions: rated visually after about 3 weeks
Method in brief: (§2)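 Each pot held sandy loam sown with a single mono- or dicot weed species, grown under controlled greenhouse conditions. Test plants were sprayed at the one-leaf stage, and after about 3 weeks of further growth the percentage activity relative to untreated plants was rated visually.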

[3] = system: LOLRI; assay: Herbicidal pre-emergence action (Table A3); assay type: in vivo, Lolium rigidum; conditions: application rate 320 g/ha; visual grading after ca. 3 weeks
Method in brief: as §1

[4] = system: VERPE; assay: Herbicidal post-emergence action (Table B10); assay type: in vivo, Veronica persica; conditions: application rate 320 g/ha
Method in brief: as §2

[5] = system: SETVI; assay: Herbicidal pre-emergence action (Table A5); assay type: in vivo, Setaria viridis; conditions: application rate 320 g/ha; visual grading after ca. 3 weeks
Method in brief: as §1

[6] = system: ALOMY; assay: Herbicidal post-emergence action (Table B2); assay type: in vivo, Alopecurus myosuroides; conditions: application rate 1280 g/ha; rated visually after about 3 weeks
Procedure: Seeds of mono- and dicotyledonous weed plants were placed in plastic pots in sandy loam soil (doubly sown with in each case one species of mono- or dicotyledonous weed plants per pot), covered with soil and cultivated in a greenhouse under controlled growth conditions. 2 to 3 weeks after sowing, the test plants were treated at the one-leaf stage. […] After the test plants had been kept in the greenhouse under optimum growth conditions for about 3 weeks, the activity of the preparations was rated visually in comparison to untreated controls. For example, 100% activity = the plants have died, 0% activity = like control plants.

[7] = system: DIGSA; assay: Herbicidal pre-emergence action (Table A12); assay type: in vivo, Digitaria sanguinalis; conditions: application rate 320 g/ha; visual grading after ca. 3 weeks
Method in brief: as §1

[8] = system: LOLRI; assay: Herbicidal pre-emergence action, section C (Table C7); assay type: in vivo, Lolium rigidum; conditions: application rate 320 g/ha; visual grading after ca. 3 weeks
Text: Seeds of mono- and dicotyledonous weed plants and crop plants were sown, in plastic or organic planting pots, in sandy loam and covered with soil. The compounds according to the invention, formulated in the form of wettable powders (WP) or as emulsifiable concentrates (EC), were applied to the surface of the covering soil as aqueous suspension or emulsion, with the addition of 0.5% of an additive, at an application rate of 600 1 of water/ha (converted). Following treatment, the pots were placed in a greenhouse and kept under optimum growth conditions for the test plants.

[9] = system: KCHSC; assay: Herbicidal pre-emergence action (Table A10); assay type: in vivo, Kochia scoparia; conditions: application rate 320 g/ha; visual grading after ca. 3 weeks
Method in brief: as §1

[10] = system: ABUTH; assay: Herbicidal pre-emergence action, section C (Table C1); assay type: in vivo, Abutilon theophrasti; conditions: application rate 320 g/ha; visual grading after ca. 3 weeks
[11] = system: MATIN; assay: Herbicidal post-emergence action (Table B6); assay type: in vivo, Matricaria inodora; conditions: application rate 1280 g/ha; rated visually after about 3 weeks
Method in brief: as §2

[12] = system: ALOMY; assay: Herbicidal pre-emergence action (Table A9); assay type: in vivo, Alopecurus myosuroides; conditions: application rate 1280 g/ha; visual grading after ca. 3 weeks
Method in brief: as §1

[13] = system: ECHCG; assay: Herbicidal pre-emergence action, section C (Table C6); assay type: in vivo, Echinochloa crus-galli; conditions: application rate 320 g/ha; visual grading after ca. 3 weeks
[14] = system: MATIN; assay: Herbicidal pre-emergence action, section C (Table C8); assay type: in vivo, Matricaria inodora; conditions: application rate 320 g/ha; visual grading after ca. 3 weeks
[15] = system: POAAN; assay: Herbicidal pre-emergence action (Table A7); assay type: in vivo, Poa annua
Method in brief: as §1

[16] = system: TRZAS; assay: Pre-emergence effects on crop plants (Table D2); assay type: in vivo, Triticum aestivum; conditions: crop plant; application rate 80 g/ha; visual grading after ca. 3 weeks
Text: Seeds of mono- and dicotyledonous weed plants and crop plants were sown, in plastic or organic planting pots, in sandy loam and covered with soil. The compounds according to the invention, formulated in the form of wettable powders (WP) or as emulsifiable concentrates (EC), were applied to the surface of the covering soil as aqueous suspension or emulsion, with the addition of 0.5% of an additive, at an application rate of 600 1 of water/ha (converted).
Following treatment, the pots were placed in a greenhouse and kept under optimum growth conditions for the test plants.

[17] = system: STEME; assay: Herbicidal pre-emergence action (Table A6); assay type: in vivo, Stellaria media; conditions: application rate 320 g/ha; visual grading after ca. 3 weeks
Method in brief: as §1

[18] = system: VERPE; assay: Herbicidal pre-emergence action (Table A11); assay type: in vivo, Veronica persica; conditions: application rate 1280 g/ha; visual grading after ca. 3 weeks
Method in brief: as §1

[19] = system: DIGSA; assay: Herbicidal pre-emergence action, section C (Table C5); assay type: in vivo, Digitaria sanguinalis; conditions: application rate 320 g/ha; visual grading after ca. 3 weeks
[20] = system: POLCO; assay: Herbicidal pre-emergence action, section C (Table C9); assay type: in vivo, Polygonum convolvulus; conditions: application rate 320 g/ha; visual grading after ca. 3 weeks
[21] = system: ORYZA; assay: Pre-emergence effects on crop plants (Table D3); conditions: crop plant; application rate 80 g/ha; visual grading after ca. 3 weeks
[22] = system: ZEAMX; assay: Post-emergence effects on crop plants (Table F1); assay type: in vivo, Zea mays; conditions: application rate 80 g/ha, crop plant ZEAMX
Text: (§3) 2 to 3 weeks after sowing, the test plants were sprayed in the single-leaf stage.

[23] = system: VERPE; assay: Herbicidal pre-emergence action, section C (Table C11); assay type: in vivo, Veronica persica; conditions: application rate 320 g/ha; visual grading after ca. 3 weeks
[24] = system: ORYZA; assay: Post-emergence effects on crop plants (Table F3); assay type: in vivo, Oryza sativa; conditions: application rate 320 g/ha, crop plant ORYZA
Text: as §3

[25] = system: TRZAS; assay: Post-emergence effects on crop plants (Table F2); assay type: in vivo, Triticum aestivum; conditions: application rate 320 g/ha, crop plant TRZAS
Text: as §3

[26] = system: VIOTR; assay: Herbicidal pre-emergence action, section C (Table C12); assay type: in vivo, Viola tricolor; conditions: application rate 80 g/ha; visual grading after ca. 3 weeks
[27] = system: SETVI; assay: Herbicidal post-emergence action, section E (Table E8); assay type: in vivo, Setaria viridis; conditions: application rate 320 g/ha; assessed visually after ca. 3 weeks
Text: as §3

[28] = system: ZEAMX; assay: Pre-emergence effects on crop plants (Table D1); assay type: in vivo, Zea mays; conditions: crop plant; application rate 320 g/ha; visual grading after ca. 3 weeks
[29] = system: ECHCG; assay: Herbicidal post-emergence action, section E (Table E5); assay type: in vivo, Echinochloa crus-galli; conditions: application rate 320 g/ha; assessed visually after ca. 3 weeks
Text: as §3

[30] = system: MATIN; assay: Herbicidal pre-emergence action (Table A4); assay type: in vivo, Matricaria inodora; conditions: visual grading after ca. 3 weeks
Method in brief: as §1

[31] = system: SETVI; assay: Herbicidal post-emergence action (Table B8); assay type: in vivo, Setaria viridis
Method in brief: as §2

[32] = system: SETVI; assay: Herbicidal pre-emergence action, section C (Table C10); assay type: in vivo, Setaria viridis; conditions: application rate 320 g/ha; visual grading after ca. 3 weeks
[33] = system: ALOMY; assay: Herbicidal pre-emergence action, section C (Table C2); assay type: in vivo, Alopecurus myosuroides; conditions: application rate 80 g/ha; visual grading after ca. 3 weeks

O=C1N(Cc2ccccc2Br)CCCC12CCCN(Cc1cccc(F)c1F)C2=O (racemic) [I-055]
pre-emergence activity against ECHCG [1]: 100% | post-emergence activity against ECHCG ([2]; application rate 1280 g/ha): 90% | pre-emergence activity against LOLRI [3]: 100% | post-emergence activity against VERPE [4]: 90% | pre-emergence activity against SETVI [5]: 90% | post-emergence activity against ALOMY [6]: 90%

O=C1N(Cc2ccccc2)CCC12CCCN(Cc1cccc(F)c1F)C2=O (racemic) [I-028]
pre-emergence activity against DIGSA [7]: 90% | pre-emergence activity against LOLRI [8]: 100% | pre-emergence activity against ECHCG [1]: 100% | post-emergence activity against ECHCG ([2]; application rate 1280 g/ha): 90% | pre-emergence activity against KCHSC [9]: 90% | pre-emergence activity against ABUTH [10]: 90% | post-emergence activity against MATIN [11]: 90% | pre-emergence activity against ALOMY [12]: 90% | pre-emergence activity against ECHCG [13]: 100% | pre-emergence activity against MATIN [14]: 80% | pre-emergence activity against POAAN ([15]; application rate 320 g/ha, visual grading after ca. 3 weeks): 100% | pre-emergence activity against LOLRI [3]: 100% | pre-emergence activity against TRZAS [16]: 20% | pre-emergence activity against STEME [17]: 90% | pre-emergence activity against VERPE [18]: 90% | pre-emergence activity against DIGSA [19]: 100% | pre-emergence activity against POLCO [20]: 90% | pre-emergence activity against ORYZA [21]: 0% | post-emergence activity against ZEAMX [22]: 0% | pre-emergence activity against SETVI [5]: 100% | pre-emergence activity against VERPE [23]: 90% | post-emergence activity against ORYZA [24]: 0% | post-emergence activity against TRZAS [25]: 0% | pre-emergence activity against VIOTR [26]: 90% | post-emergence activity against SETVI [27]: 80% | pre-emergence activity against ZEAMX [28]: 0% | post-emergence activity against ECHCG [29]: 80% | pre-emergence activity against MATIN ([30]; application rate 320 g/ha): 90% | post-emergence activity against SETVI ([31]; application rate 1280 g/ha): 90% | pre-emergence activity against SETVI [32]: 100% | pre-emergence activity against ALOMY [33]: 90%

O=C1N(Cc2ccccc2Cl)CCCC12CCCN(Cc1cccc(F)c1F)C2=O (racemic) [I-018]
pre-emergence activity against ECHCG [1]: 100% | post-emergence activity against ECHCG ([2]; application rate 320 g/ha): 90% | pre-emergence activity against ALOMY [12]: 90% | pre-emergence activity against POAAN ([15]; pre-emergence, 1290 g/ha, 504 h): 100% | pre-emergence activity against LOLRI [3]: 100% | post-emergence activity against VERPE [4]: 90% | pre-emergence activity against SETVI [5]: 90% | post-emergence activity against ALOMY [6]: 90% | pre-emergence activity against MATIN ([30]; application rate 1280 g/ha): 90% | post-emergence activity against SETVI ([31]; application rate 320 g/ha): 90%
